According to patent US20230091310A1, “Inhibitor of Fertilized Egg Fragmentation” (priority 2019, published 2023):

Key:
[1] = test system: eggs; experiment: Oxidative stress test (ROS/RNS Detection Kit) in eggs; assay type: cell-based, mouse; conditions: 1 μM each; 15 hours on hot plate; vs vehicle (0.1% DMSO)
Experimental: Mouse cumulus cells-egg masses harvested by the method of Example 3 were stored in TYH medium and the cumulus cells were removed by 300 μg/mL hyaluronidase treatment to recover the eggs alone. TYH medium containing 1 μM selenoneine (SeN), TYH medium containing 1 μM ergothioneine (Erg) and TYH medium containing 1 μM ergothioneine and 1 μM ebselen (Tokyo Kasei Kogyo Co., Ltd.) (Erg+Eb) were prepared and incubated on a hot plate set to 37° C. As a control, a TYH medium (vehicle) containing the DMSO (0.1%) used to dissolve the ebselen was used. The collected eggs were transferred to incubated selenoneine-containing TYH medium and cultured under shielding for 15 hours. The reagent of a ReOIS-ID ROS/RNS Detection Kit (product of Enzo Co.) was added to the medium containing the cultured eggs, according to the manufacturer's protocol. DAPI (Wako Pure Chemical Industries, Ltd.) had already been separately added to stain the nuclei. The nuclei (DAPI) and the reactive oxygen species (ROS), reactive nitrogen species (RNS) and superoxides in the eggs were observed under a fluorescent microscope (FIG. 8A). The fluorescence intensity was calculated and graphed (FIGS. 8B to D).

[2] = test system: fertilized eggs; experiment: Fertilized egg fragmentation after treatment of sperm, in vitro fertilization; assay type: cell-based, mouse (C57BL/6 J line); conditions: sperm incubated 6 h with 100 nM, 24 h after fertilization; for fragmented embryos: vs untreated control
Experimental: In the same manner as Example 2, sperm incubated for 6 hours in selenoneine-containing TYH medium (final concentration: 100 nM) were separated off with the medium and washed with TYH medium that had been previously incubated at 37° C. in a 5% CO2 atmosphere, after which the washed sperm were separated off and added to TYH medium containing cumulus cells-egg masses. After 24 hours had passed, the fertilization rate was measured and the numbers of normal 2-cell stage embryos and fragmented embryos were counted. For measurement of the fertilization rate, second polar body release and the presence or absence of cell nuclei in the split bodies of each of the 2-cell stage embryos were visually observed in the bright field of a stereomicroscope, and normal 2-cell stage embryos and fragmented embryos were likewise observed in the bright field of a stereomicroscope.
The inhibiting effect of ergothioneine treatment on fragmentation of fertilized eggs was examined in the same manner as the selenoneine treatment of sperm in Example 3, but using commercially available ergothioneine (final concentration: 100 nM) instead of selenoneine (FIG. 5). No difference in the proportion of 2-cell stage embryos was found between the ergothioneine treatment and selenoneine treatment (FIG. 5A).

[3] = test system: eggs; experiment: Stress-induced egg fragmentation (hot plate culturing); assay type: cell-based, mouse; conditions: hot plate 37° C.; for egg fragmentation: after 21 and 24 hours of culturing
Experimental: (§1) Mouse cumulus cells-egg masses harvested by the method of Example 3 were stored in TYH medium and the cumulus cells were removed by 300 μg/mL hyaluronidase treatment to recover the eggs alone. TYH medium was prepared with selenoneine at 10 nM, 100 nM, 1 μM, 10 μM and 100 μM, and incubated on a hot plate set to 37° C. Selenoneine-free THY medium was used as the control. The collected eggs were transferred to the incubated selenoneine-containing TYH medium and cultured under shielding for 12 hours, 15 hours, 18 hours, 21 hours and 24 hours, after which they were observed under a stereomicroscope and the proportion of fragmented eggs was examined (FIG. 6). The numbers of cultured eggs in each selenoneine-containing medium were 10 nM: 107, 100 nM: 161, 1 μM: 155, 10 μM: 118, 100 μM: 85 and control: 83.
Culturing by incubation on a hot plate instead of a CO2 incubator produced stress in the eggs. […] The numbers of cultured eggs in each medium were 10 nM: 63, 100 nM: 66, 1 μM: 63, 10 μM: 71, 100 μM: 54 and control: 83.
as §1, with “with ergothioneine” for “with selenoneine”, “C. Ergothioneine-free” for “C. Selenoneine-free”, “(FIG. 7).” for “(FIG. 6). The numbers of cultured eggs in each selenoneine-containing medium were 10 nM: 107, 100 nM: 161, 1 μM: 155, 10 μM: 118, 100 μM: 85 and control: 83.”
Culturing by incubation on a hot plate instead of a CO2 incubator produced stress in the eggs.

[4] = test system: mouse sperm; experiment: Sperm membrane protection (propidium iodide / Hoechst 33342 staining); assay type: cell-based, mouse (C57BL/6 J line)
Experimental: (§2) A sperm mass harvested from the epididymis of an 8- to 12-week-old sexually matured male mouse (C57BL/6 J line) was transferred to a drop prepared in the TYH medium. It was then returned to the plastic dish in the incubator and allowed to stand for 1 hour. After standing for 1 hour, the selenoneine prepared in Example 1 was added to a drop of sperm-containing fertilization medium to final concentrations of 10 nM, 1 μM and 100 μM (or was not added for the control), and the mixture was cultured in an incubator for 3 hours, 6 hours and 9 hours, after which the sperm were obtained. The sperm were also obtained before culturing (0 h). The nuclei of obtained sperm were stained with 2 μg/mL of propidium iodide (PI: Sigma-Aldrich Japan, KK.) and 16.2 μM of Hoechst AG 33342 (Hoechst3342: Invitrogen Corp.), and observed under a fluorescent microscope (FIG. 9A). The number of sperm whose nuclei were unstained with propidium iodide was divided by the number of sperm whose nuclei were stained with Hoechst AG, to calculate the proportion of sperm which retained membranes (FIG. 9B).
Hoechst AG is cell membrane-permeable and can stain all sperm nuclei, whereas propidium iodide is membrane-impermeable and can only stain the nuclei of dead sperm or sperm that have damaged membranes. Therefore, the number of sperm whose nuclei were not stained with propidium iodide but were stained only by Hoechst AG represents the number of normal sperm which retained their membranes.
as §2, with “(Hoechst3342: distributed by” for “(Hoechst3342:”, “microscope.” for “microscope (FIG. 9A).”, “9C).” for “9B).”

[5] = test system: fertilized eggs; experiment: Fertilized egg fragmentation after treatment of eggs, in vitro fertilization; assay type: cell-based, mouse (C57BL/6 J line); conditions: eggs cultured with 100 nM; 24 h after sperm addition; vs control
Experimental: Female mice (C57BL/6 J line: 8- to 12-week-old) were treated for superovulation by the following procedure, and the eggs were harvested.
1. Animal serotropin (PMSG, ASKA Pharmaceutical Co., Ltd.) and animal gonadotropin (hCG, ASKA Pharmaceutical Co., Ltd.) were dissolved in physiological saline to […]. 2. The mice were intraperitoneally administered PMSG at 0.1 mL(5 units)/mouse, and after 48 hours they were intraperitoneally administered hCG at 0.1 mL (5 units)/mouse. 3. After hCG administration, the cumulus cells and egg masses were taken through the fallopian tubes of the mice at 14 to 16 hours.
The cumulus cells and egg masses harvested from the fallopian tubes of the superovulated mice were transferred to a drop of 100 μL TYH medium that had been previously incubated in 5% CO2 at 37° C., and allowed to stand in the incubator.
The harvested eggs were cultured for 2 hours in TYH medium, and then the 1 μL selenoneine (10 μM) solution prepared in Example 1 was added to the TYH medium drop (or not added for the control), and further culturing was carried out for 2 hours with a final concentration of 100 nM selenoneine in the medium. […] After 24 hours had passed in the presence of selenoneine, the fertilization rate was measured and the numbers of normal 2-cell stage embryos and fragmented embryos were counted. […]

[6] = test system: mouse sperm; experiment: Sperm motility test (CASA); assay type: cell-based, mouse (C57BL/6 J line); conditions: 1 μL of 10 μM added to 100 μL TYH drop; 3 h and 6 h incubation; vs control
Experimental: A 100 μL drop of TYH medium was prepared in a plastic dish, and liquid paraffin was laid over it until the drop was completely covered. The plastic dish was then allowed to stand for 16 hours in an incubator set to 5% CO2, 37° C. The TYH medium drop on the plastic dish was used for a sperm motility test and fertilization test. A sperm mass harvested from the epididymis of a 8- to 12-week-old sexually matured male mouse (C57BL/6 J line) was transferred to a drop prepared in the TYH medium. It was then returned to the plastic dish in the incubator and allowed to stand for 1 hour. After standing for 1 hour, 1 μL of selenoneine (10 μM) prepared in Example 1 was added to a drop of sperm-containing fertilization medium (or not added for the control), and the mixture was allowed to stand in an incubator. After incubation for 3 hours, the sperm motility was measured using CASA, and the proportion of sperm was measured, dividing it into motile sperm and progressive sperm (FIGS. 2A and B). After incubation for 6 hours, the proportion of sperm was then measured with similar division based on sperm motility (VCL) (FIGS. 2C and D).

[7] = 10 nM to 100 μM, culturing 3, 6 and 9 hours
[8] = 100 μM, after culturing for 9 hours, p<0.05

Row | Structure (SMILES) | reactive nitrogen species (RNS) in eggs [1] | reactive oxygen species (ROS) in eggs [1] | superoxides in eggs [1] | fragmented embryos ([2]; washed) | proportion of 2-cell stage embryos, ergothioneine treatment versus selenoneine treatment [2] | egg fragmentation ([3]; 10 nM to 10 μM in TYH medium) | egg fragmentation ([3]; 1 μM in TYH medium, p<0.05) | proportion of sperm which retained membranes [4, 7] | proportion of sperm which retained membranes [4, 8] | fragmented embryos [5] | proportion of 2-cell stage embryos [5] | sperm motility (proportion of motile sperm and progressive sperm) [6] | proportion of 2-cell stage embryos ([2]; washed, vs control) | degree of egg fragmentation ([3]; 100 nM, 1 μM and 10 μM in TYH medium, p<0.05)
1 | C[N+](C)(C)[C@@H](Cc1c[nH]c(=S)[nH]1)C(=O)[O-] [ergothioneine] | no variation | increased significantly | No change | reduced compared to the untreated control | No difference | inhibition seen | significantly inhibited | membrane-protecting effect | significantly protected |  |  |  |  | 
2 | C[N+](C)(C)[C@@H](Cc1cnc([Se-])[nH]1)C(=O)O [selenoneine] | significant reduction | increased significantly | No change | No fragmented embryos |  |  |  | membrane-protecting effect | significantly protected | no fragmented embryos | no difference | No effect on sperm motility | no difference | significantly inhibited
